# Assay results published in paper PMC8610377, “Target identification for small-molecule discovery in the FOXO3a tumor-suppressor pathway using a biodiverse peptide library” (Cell Chemical Biology, 2021).
# Columns and labels:
# 9J10/14-3-3ε interaction [1] = biological target: T1, 9J10/14-3-3ε interaction (Homo sapiens, UniProt P62258); assay: FP competition, TAMRA-p9J10Min binding to 14-3-3ε; conditions: 10nM TAMRA-p9J10Min, His-14-3-3ε 1.5 μM, top concentration 200 μM, 0.4% DMSO; mean of three independent experiments; read-out: IC50, FP
# T1 construct: A synthetic gene construct encoding full length human 14-3-3ε; made in house; host or cells: E. coli BL21(DE3)
# T1 sequence (P62258 1-255): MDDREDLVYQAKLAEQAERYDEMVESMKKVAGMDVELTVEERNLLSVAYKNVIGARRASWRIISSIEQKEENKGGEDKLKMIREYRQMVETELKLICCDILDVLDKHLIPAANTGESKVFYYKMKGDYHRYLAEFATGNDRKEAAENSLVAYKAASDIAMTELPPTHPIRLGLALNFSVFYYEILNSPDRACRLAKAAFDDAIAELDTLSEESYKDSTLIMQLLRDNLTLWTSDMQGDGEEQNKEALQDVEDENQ
# Description: Protein purity was visualized by running SDS-PAGE. […] Compound dilution plates, black 384 well NBS assay plates and tip racks were loaded into the Cytomat as indicated by the scheduling software. […] Test compounds were diluted to 3X final concentration in the dilution plates. 10 μL of diluted compound was added into each well of the assay plate followed by 10μL of […]-3-3ε and 10μL of TAMRA-p9J10Min. Plates were incubated at room temperature for 20 min on the robot's deck or in the Cytomat before the Fluorescence Polarisation was read using the BMG PheraStar plate reader. Test compounds were assayed in triplicate. […] DMSO controls were run alongside all experimental compounds and % inhibition normalised to these controls. All other experimental conditions were as described above.
# 9J10/14-3-3ε interaction [2] = biological target: T1, 9J10/14-3-3ε interaction; assay: competitive microscale thermophoresis (MST); format: binding; conditions: 20 nM labeled 14-3-3ε, 1 μM cognate peptide (EC80), 2% DMSO, 25°C; mean of three independent experiments
# Description: (§1) Protein purity was visualized by running SDS-PAGE.
# The 14-3-3ε protein was labeled with NT-647-NHS fluorescent dye using the Monolith Protein Labeling Kit (Cat# MO-L011, NanoTemper Technologies). Assays were carried out in 10 mM Hepes, 150 mM NaCl and 0.01% Tween 20. For the direct binding assay, 10 μL of labeled protein at a final concentration of 20 nM was mixed with 10 μL of cognate peptide. For the competitive assay, 10 μL of labeled protein at a final concentration of 20 nM was mixed with 1 μM of cognate peptide at the EC80 concentration determined by prior titration using a 16-point serial dilution by direct-binding MST. […] An initial ‘‘CapillaryScan’’ was performed to scan for fluorescence across the length of the capillary tray to determine the exact position of each capillary before the MST measurement was started. Test compound in 2% final DMSO concentration was assayed at 16 different concentrations by serial dilution, and data were analyzed using NanoTemper analysis software with ‘‘T-jump + Thermophoresis’’ settings. The change in thermophoresis between different experimental conditions was expressed as the change in the normalized fluorescence (ΔFnorm), which is defined as Fhot/Fcold (F-values correspond to average fluorescence values between defined areas in the curve under steadystate conditions under control (Fcold) or experimental (Fhot) conditions). […]
# [3] = system: polo-box domain of human polo-like kinase 1 (PLK1); assay: selectivity: substrate recognition by polo-box domain; format: binding
# 14-3-3ε = biological target: T2, 14-3-3ε (Homo sapiens, UniProt P62258); assay: STD-NMR; format: binding; conditions: 100 μM 9J10, 10 μM 14-3-3ε, 2% d6-DMSO
# T2 sequence (P62258 1-255): T1 sequence (P62258 1-255)
# Description: as §1
# 1H NMR and STD spectra were recorded with a Bruker Avance-III HD 600 MHz at 298 K. Bruker TopSpin software was used to acquire and process the NMR data. NMR samples were prepared in D2O, with 100 μM 9J10 peptide (LNRTPGRRRN(p-Serine)N-acid) (Sigma-Aldrich), and 10 μM 14-3-3ε protein. For STD NMR measurements standard Bruker pulse sequence stddiffesgp.3 was used, the on-resonance frequency was set to be 0 ppm, and the off-resonance frequency at −40 ppm. The number of scans was typically 64, both the saturation pulses and relaxation delay were set to be 5 s and the power of the shaped pulse for saturation was set at 40 dB. Experiments with the varying concentrations of CU7218 were performed by mixing appropriate volume of the compound in DMSO and the final DMSO concentration was adjusted to 2.0% by using d6-DMSO.
compound,measurement,setting,value
Cc1c(C(=O)O)sc2[nH]c(=S)[nH]c(=O)c12 [CU7218],IC50,9J10/14-3-3ε interaction [1],111 µM
same,IC50,9J10/14-3-3ε interaction [2],26.5 µM
same,disruption of substrate recognition by PLK1 polo-box domain,[3],failed to disrupt substrate recognition
same,9J10 STD signal intensity with CU7218,14-3-3ε,markedly reduced the 9J10 STD signal intensity
same,lowest CU7218 concentration markedly reducing the 9J10 STD signal,14-3-3ε; tested 50-250 μM,≥ 150 µM
